Assay results from article PMC10743905, “Design, Synthesis, and In Vitro and In Vivo Bioactivity Studies of Hydrazide–Hydrazones of 2,4-Dihydroxybenzoic Acid” (International Journal of Molecular Sciences, 2023).
≈ marks a conversion by molar mass, not a printed value.

Test system: Bacillus subtilis ATCC 6633
Test: Broth microdilution MIC/MBC
Assay type: cell-based
Conditions: not given
Text: Detailed procedures are presented in the Supplementary Materials. […]
(§1) In vitro antimicrobial activity assays - Methodology
(§2) The examined compounds 1 - 24 were screened in vitro for antibacterial and antifungal activities using the broth microdilution method according to procedure reported earlier by our research group and European Committee on Antimicrobial Susceptibility Testing (EUCAST) and Clinical and Laboratory Standards Institute (CLSI) guidelines against a panel of reference and clinical or saprophytic strains of microorganisms, in-cluding Gram-positive bacteria, Staphylococcus aureus ATCC 43300 (Methicillin Resistant S. aureus – MRSA), Staphylococcus aureus ATCC 29213 (Methicillin Susceptible S. aureus – MSSA), Staphylococcus epidermidis ATCC 12228, Enterococcus faecalis ATCC 29212, Micro-coccus luteus ATCC 10240, Bacillus subtilis ATCC 6633 and Bacillus cereus ATCC 10876), Gram-negative bacteria (Bordetella bronchiseptica ATCC 4617, Escherichia coli ATCC 25922, Klebsiella pneumoniae ATCC 13883, Proteus mirabilis ATCC 12453, Salmonella typhimurium ATCC 14028 and Pseudomonas aeruginosa ATCC 9027) and fungi belonging to yeasts (Can-dida albicans ATCC 10231, Candida albicans ATCC 2091, Candida parapsilosis ATCC 22019, Candida glabrata ATCC 90030 and Candida krusei ATCC 14243). The microorganisms be-longing to ATCC came from American Type Culture Collection, routinely used for the evaluation of antimicrobials. All the used microbial cultures were first subcultured on nu-trient agar or Sabouraud agar at 35°C for 18-24 h or 30°C for 24-48 h for bacteria and fungi, […]
(§3) The surface of Mueller-Hinton agar (for bacteria) and RPMI 1640 with MOPS (for fungi) were inoculated with the suspensions of bacterial or fungal species. Microbial suspensions were prepared in sterile saline with an optical density of McFarland standard scale 0.5.
(§4) Samples containing examined compounds were dissolved in dimethyl sulfoxide (DMSO).
(§5) Furthermore, bacterial and fungal suspensions were put onto Petri dishes with solid me-dia containing 2 mg/mL of the tested compounds followed incubation at 37°C for 24h and 30°C for 48h for bacteria and fungi, respectively. The inhibition of microbial growth was judged by comparison with a control culture prepared without any sample tested. Ciprof-loxacin, vancomycin, nitrofurantoin, cefuroxime, ampicillin or nystatin (Sigma) were used as a reference antibacterial or antifungal compounds, respectively.
(§6) Subsequently, the MIC (Minimal Inhibitory Concentration) of the compounds was ex-amined by the microdilution broth method, using their two-fold dilutions in Mueller- […]
(§7) Hinton broth or (for bacteria) and RPMI 1640 broth with MOPS (for fungi) prepared in 96-well polystyrene plates. Final concentrations of the compounds ranged from 1000 to 0.488 µg/ml. Microbial suspensions were prepared in 0.85% NaCl with an optical density of 0.5 McFarland standard. Next each bacterial or fungal suspension was added per each well containing broth and various concentrations of the examined compounds. After incuba-

Row | MBC/MIC | SMILES
1 | > 1 | CCCOc1ccc(/C=N/NC(=O)c2ccc(O)cc2O)cc1 [Compound 6, 2,4-dihydroxy-N-[(4-propoxyphenyl)methylidene]benzohydrazide]

Same assay, conditions: ATCC6633

Row | SMILES | MBC [µg/mL]
2 | CCCOc1ccc(/C=N/NC(=O)c2ccc(O)cc2O)cc1 [Compound 6, 2,4-dihydroxy-N-[(4-propoxyphenyl)methylidene]benzohydrazide] | > 1000

Same assay, conditions: ATCC6633, read-out: MIC

Row | MIC [µg/mL] | SMILES
3 | 1000 (≈ 3.18 mM) | CCCOc1ccc(/C=N/NC(=O)c2ccc(O)cc2O)cc1 [Compound 6, 2,4-dihydroxy-N-[(4-propoxyphenyl)methylidene]benzohydrazide]

Test system: Escherichia coli ATCC 25922
Test: Broth microdilution MIC/MBC
Assay type: cell-based
Conditions: ATCC25922
Text: as §1, §2, §3, §4, §5, §6, §7

Row | MIC [µg/mL] | SMILES
4 | > 1000 | CCCOc1ccc(/C=N/NC(=O)c2ccc(O)cc2O)cc1 [Compound 6, 2,4-dihydroxy-N-[(4-propoxyphenyl)methylidene]benzohydrazide]

Test system: Enterococcus faecalis ATCC 29212
Test: Broth microdilution MIC/MBC
Assay type: cell-based
Conditions: ATCC29212, read-out: MIC
Text: as §1, §2, §3, §4, §5, §6, §7

Row | MIC [µg/mL] | SMILES
5 | > 1000 | CCCOc1ccc(/C=N/NC(=O)c2ccc(O)cc2O)cc1 [Compound 6, 2,4-dihydroxy-N-[(4-propoxyphenyl)methylidene]benzohydrazide]

Test system: Bacillus cereus ATCC 10876
Test: Broth microdilution MIC/MBC
Assay type: cell-based
Conditions: not given
Text: as §1, §2, §3, §4, §5, §6, §7

Row | MBC/MIC | SMILES
6 | > 1 | CCCOc1ccc(/C=N/NC(=O)c2ccc(O)cc2O)cc1 [Compound 6, 2,4-dihydroxy-N-[(4-propoxyphenyl)methylidene]benzohydrazide]

Same assay, conditions: ATCC10876

Row | SMILES | MBC [µg/mL]
7 | CCCOc1ccc(/C=N/NC(=O)c2ccc(O)cc2O)cc1 [Compound 6, 2,4-dihydroxy-N-[(4-propoxyphenyl)methylidene]benzohydrazide] | > 1000

Same assay, conditions: ATCC10876, read-out: MIC

Row | MIC [µg/mL] | SMILES
8 | 1000 (≈ 3.18 mM) | CCCOc1ccc(/C=N/NC(=O)c2ccc(O)cc2O)cc1 [Compound 6, 2,4-dihydroxy-N-[(4-propoxyphenyl)methylidene]benzohydrazide]

Test system: Bordetella bronchiseptica ATCC 4617
Test: Broth microdilution MIC/MBC
Assay type: cell-based
Conditions: ATCC4617
Text: as §1, §2, §3, §4, §5, §6, §7

Row | MIC [µg/mL] | SMILES
9 | > 1000 | CCCOc1ccc(/C=N/NC(=O)c2ccc(O)cc2O)cc1 [Compound 6, 2,4-dihydroxy-N-[(4-propoxyphenyl)methylidene]benzohydrazide]

Test system: Klebsiella pneumoniae ATCC 13883
Test: Broth microdilution MIC/MBC
Assay type: cell-based
Conditions: ATCC13883
Text: as §1, §2, §3, §4, §5, §6, §7

Row | MIC [µg/mL] | SMILES
10 | > 1000 | CCCOc1ccc(/C=N/NC(=O)c2ccc(O)cc2O)cc1 [Compound 6, 2,4-dihydroxy-N-[(4-propoxyphenyl)methylidene]benzohydrazide]

Test system: Candida albicans ATCC 2091
Test: Broth microdilution MIC/MFC
Assay type: cell-based
Conditions: not given
Text: as §1, §2, §3, §4, §5, §6, §7

Row | MFC/MIC | SMILES
11 | > 2 | CCCOc1ccc(/C=N/NC(=O)c2ccc(O)cc2O)cc1 [Compound 6, 2,4-dihydroxy-N-[(4-propoxyphenyl)methylidene]benzohydrazide]

Same assay, conditions: ATCC2091, read-out: MFC

Row | SMILES | MFC [µg/mL]
12 | CCCOc1ccc(/C=N/NC(=O)c2ccc(O)cc2O)cc1 [Compound 6, 2,4-dihydroxy-N-[(4-propoxyphenyl)methylidene]benzohydrazide] | > 1000

Same assay, conditions: ATCC2091, read-out: MIC

Row | MIC [µg/mL] | SMILES
13 | 500 (≈ 1.59 mM) | CCCOc1ccc(/C=N/NC(=O)c2ccc(O)cc2O)cc1 [Compound 6, 2,4-dihydroxy-N-[(4-propoxyphenyl)methylidene]benzohydrazide]

Test system: Candida parapsilosis ATCC 22019
Test: Broth microdilution MIC/MFC
Assay type: cell-based
Conditions: not given
Text: as §1, §2, §3, §4, §5, §6, §7

Row | MFC/MIC | SMILES
14 | > 1 | CCCOc1ccc(/C=N/NC(=O)c2ccc(O)cc2O)cc1 [Compound 6, 2,4-dihydroxy-N-[(4-propoxyphenyl)methylidene]benzohydrazide]

Same assay, conditions: Lodderomyces parapsilosis, ATCC22019, read-out: MFC

Row | SMILES | MFC [µg/mL]
15 | CCCOc1ccc(/C=N/NC(=O)c2ccc(O)cc2O)cc1 [Compound 6, 2,4-dihydroxy-N-[(4-propoxyphenyl)methylidene]benzohydrazide] | > 1000

Same assay, conditions: Lodderomyces parapsilosis, ATCC22019, read-out: MIC

Row | MIC [µg/mL] | SMILES
16 | 1000 (≈ 3.18 mM) | CCCOc1ccc(/C=N/NC(=O)c2ccc(O)cc2O)cc1 [Compound 6, 2,4-dihydroxy-N-[(4-propoxyphenyl)methylidene]benzohydrazide]

Test system: Candida krusei ATCC 14243
Test: Broth microdilution MIC/MFC
Assay type: cell-based
Conditions: Pichia kudriavzevii, ATCC14243, read-out: MIC
Text: as §1, §2, §3, §4, §5, §6, §7

Row | MIC [µg/mL] | SMILES
17 | > 1000 | CCCOc1ccc(/C=N/NC(=O)c2ccc(O)cc2O)cc1 [Compound 6, 2,4-dihydroxy-N-[(4-propoxyphenyl)methylidene]benzohydrazide]

Test system: Candida glabrata ATCC 90030
Test: Broth microdilution MIC/MFC
Assay type: cell-based
Conditions: Nakaseomyces glabratus, ATCC90030, read-out: MIC
Text: as §1, §2, §3, §4, §5, §6, §7

Row | MIC [µg/mL] | SMILES
18 | > 1000 | CCCOc1ccc(/C=N/NC(=O)c2ccc(O)cc2O)cc1 [Compound 6, 2,4-dihydroxy-N-[(4-propoxyphenyl)methylidene]benzohydrazide]
